This note sets out measurements from patent publication US9091700B2, “Modified peptide substrate” (McMaster University, priority 2005, dated 2015).

What all share (assay type): biochemical
One assay deals with T1, human alpha thrombin (Homo sapiens, UniProt P00734).
T1 construct: 100 nM human alpha thrombin (Enzyme Research Laboratories); purchased Enzyme Research Laboratories
Kind of assay: Reaction of thrombin with S2238 SEPHAROSE beads or free S2238, absorbance at 405 nm of supernatant. The conditions noted are these: + thrombin + TSP buffer; 100 nM thrombin, 23° C. The protocol: 0.5 mL of resuspended S2238 SEPHAROSE™ beads was placed in each of 2 microfuge tubes (1.5 mL capacity), followed by centrifugation at 12000 g for 1 minute and removal of the resultant supernatant. Beads in each tube were resuspended in 0.5 mL of 0.02 M Tris-HCl 0.15 M NaCl 0.6% polyethylene glycol 8000 pH 7.4 (TSP), centrifuged for 1 minute and the resultant supernatant discarded. A solution of 100 nM human alpha thrombin (Enzyme Research Laboratories) in TSP was prepared. 0.5 mL of thrombin was added to one tube of packed S2238 SEPHAROSE™ beads (tube 1) and 0.5 mL of TSP was added to the other tube of S2238-SEPHAROSE™ beads (tube 2). In a separate empty tube, 0.05 mL of free (not conjugated to beads) S2238 stock solution (12.5 mg of S2238/mL of H2O)+0.15 mL of TSP+0.5 mL of 100 nM thrombin were added (tube 3). Finally, in a separate empty tube, 0.05 mL of free S2238 stock solution+0.65 mL of TSP were added (tube 4). All of the tubes were capped and tubes+contents were gently shaken by inversion manually for 10 min at 23° C. Following inversion mixing, tubes were centrifuged at 12000 g for 1 min and 0.2 mL of supernatant fluid from each tube quickly removed to separate wells of a 96-well microtitre plate and the absorbance at 405 nm measured.

Assay [1] has as its system Total Thrombin (Free Thrombin+Thrombin-A2M). The experiment in a line: Plasma thrombin generation, subsamples detected with free S2238 or S2238-Agarose. The note with it: for Thrombin activity detected (absorbance at 405 nm), in words: plasma samples with free thrombin+thrombin-A2M, FIG. 5. The protocol: Plasma is taken and the fibrinogen removed by reaction with ancrod enzyme to form a fibrin clot that is wound out to give the resultant defibrinated plasma. At time zero, tissue factor (Thromborel S)+CaCl2 are added to start thrombin generation in the pre-warmed defibrinated plasma. At certain time points, subsamples from the reaction mixture are taken into Na2EDTA to stop further thrombin generation by chelating the Ca^2+. Thrombin activity in the time sample (containing both free thrombin and thrombin bound to alpha-2-macroglobulin (A2M)) was then detected by mixing with either free S2238 substrate in buffer or sterically hindered S2238 substrate (S2238-Agarose beads) suspended in buffer. In order to determine the ability of free S2238 or S2238-Agarose to detect thrombin-A2M, a similar experiment to the above method was carried out, except that all free thrombin was inhibited first by mixing with antithrombin+heparin prior to incubation with substrate. […] Thus, early time point samples (i.e. 60 seconds) would contain more free thrombin than thrombin-A2M, while later time point samples (i.e. 300 seconds) would contain much more thrombin-A2M than free thrombin.
12 mm (ID)×75 mm (L) polycarbonate plastic test tubes were used for plasma thrombin generation. • 1. Defibrination of Plasma: • a. 800 μL of Plasma was incubated with 10 μL of 30 U/mL Ancrod stock at 37° C. for 10 minutes. • b. After incubation, fibrin clot that formed was wound out on a plastic rod, leaving supernatant defibrinated plasma. • c. Test tube was placed on ice for 10 minutes. • d. After 10-minute incubation, any further clots were wound out. • e. Defibrinated plasma was stored on ice. • 2. The activator solution (12.5 μL Thromborel S+4.0 μL 1M CaCl2+183.5 μL HBS) was warmed at 37° C. in a tube. In a separate tube, 150 μL of defibrinated plasma was warmed at 37° C. • 3. At t=0, 150 μL of activator solution was mixed with 150 μL of defibrinated plasma, at 37° C. • 4. […] Aliquots of […] of supernatant from each sample were placed in 96-well plate wells and the absorbance at 405 nm measured.

The target in assay [2] is T2, thrombin-A2M (Homo sapiens, UniProt P00734).
T2 construct: 0.2 mg thrombin (Enzyme Research Laboratories, South Bend, 1N, USA)/mL HBS; purchased Enzyme Research Laboratories (thrombin); Sigma (A2M)
Kind of assay: Plasma thrombin generation, free thrombin neutralized by antithrombin+heparin before substrate. The conditions noted are these: plasma samples with thrombin-A2M only (free thrombin neutralized by antithrombin+heparin); FIG. 5. The protocol:
Plasma is taken and the fibrinogen removed by reaction with ancrod enzyme to form a fibrin clot that is wound out to give the resultant defibrinated plasma. At time zero, tissue factor (Thromborel S)+CaCl2 are added to start thrombin generation in the pre-warmed defibrinated plasma. At certain time points, subsamples from the reaction mixture are taken into Na2EDTA to stop further thrombin generation by chelating the Ca^2+. Thrombin activity in the time sample (containing both free thrombin and thrombin bound to alpha-2-macroglobulin (A2M)) was then detected by mixing with either free S2238 substrate in buffer or sterically hindered S2238 substrate (S2238-Agarose beads) suspended in buffer. […]
12 mm (ID)×75 mm (L) polycarbonate plastic test tubes were used for plasma thrombin generation. • 1. […] Aliquots of 2004 of supernatant from each sample were placed in 96-well plate wells and the absorbance at 405 nm measured.
The experiment described above was repeated, except that at step 4, 25 μL of time sample was added to 5 μL of 50 U antithrombin/mL PBS (7.2 mg antithrombin/mL)+2 μl of 100 U heparin/mL 0.15M NaCl on ice. […] Absorbance detected at 405 nm was essentially due to substrate reaction with thrombin-A2M alone (free thrombin having been neutralized by antithrombin+heparin).

In assay [3] the target is T2, thrombin-A2M. Kind of assay: Further comparison of reactivities (Example 3), change in absorbance. The conditions noted are these: reactant thrombin-A2M. How it is done:
(§1) Thrombin and thrombin-A2M were added to samples of S2238 and S2238-Agarose.

Assay [4] has as its target T3, thrombin (Homo sapiens, UniProt P00734).
T3 construct: 0.2 mg thrombin (Enzyme Research Laboratories, South Bend, 1N, USA)/mL HBS; purchased Enzyme Research Laboratories
The assay is described as above. The conditions noted are these: reactant Thrombin. How it is done:
as §1

Assay [5] addresses T2, thrombin-A2M. The experiment in a line: Reaction of soluble S2238 in 96-well plate, change in absorbance at 405 nm over 100 seconds. The conditions noted are these: for ΔA: absorbance 405 nm over 100 seconds. How it is done: (§2) A solution of 0.05M HEPES 0.15M NaCl pH 7.5 (HBS) was prepared. Thrombin-A2M was prepared by reaction of 40 μL of 5 mg A2M (Sigma)/mL+40 μL of 0.2 mg thrombin (Enzyme Research Laboratories, South Bend, 1N, USA)/mL HBS for 40 to 60 minutes at 23° C. (solution #1). Solutions of 40 μL of 5 mg A2M/mL+40 μL HBS (solution #2) and 40 μL of 0.2 mg thrombin/mL+40 μL HBS (solution #3) were prepared.
(§3) The following reactions with S2238 were carried out in 96-well plate wells. • 1. 5 μL of solution #1 were added to 10 uL of 0.5 mg antithrombin (purified antithrombin III protein, Affinity Biologicals, Ancaster, Ontario, Canada)/mL HBS+1 μL of 100 U heparin (Leo Laboratories, Ajax, Ontario, Canada)/mL HBS+74 μL HBS. After 10 minutes, 10 μL of 3.192 mg S2238/mL H2O was added with mixing, absorbance readings at 405 nm measured every 10 seconds for 100 seconds and the change in absorbance over that time recorded (AA). • 2. 5 μL of solution #2 were added to 10 uL of 0.5 mg antithrombin/mL HBS+1 μL of 100 U heparin/mL HBS+74 μL HBS. After 10 minutes, 10 μL of 3.192 mg S2238/mL H2O was added with mixing, absorbance readings at 405 nm measured every 10 seconds for 100 seconds and the change in absorbance over that time recorded (AA). • 3. 5 μL of solution #3 were added to 10 uL of 0.5 mg antithrombin/mL HBS+1 μL of 100 U heparin/mL HBS+74 μL HBS. After 10 minutes, 10 μL of 3.192 mg S2238/mL H2O was added with mixing, absorbance readings at 405 nm measured every 10 seconds for 100 seconds and the change in absorbance over that time recorded (AA). • 4. 5 μL of solution #1 were added to 85 uL of HBS. After 10 minutes, 10 μL of 3.192 mg S2238/mL H2O was added with mixing, absorbance readings at 405 nm measured every 10 seconds for 100 seconds and the change in absorbance over that time recorded (AA). • 5. 5 μL of solution #2 were added to 85 uL of HBS. After 10 minutes, 10 μL of 3.192 mg S2238/mL H2O was added with mixing, absorbance readings at 405 nm measured every 10 seconds for 100 seconds and the change in absorbance over that time recorded (AA). • 6. 5 μL of solution #3 were added to 85 uL of HBS. After 10 minutes, 10 μL of 3.192 mg S2238/mL H2O was added with mixing, absorbance readings at 405 nm measured every 10 seconds for 100 seconds and the change in absorbance over that time recorded (LA).

The target in assay [6] is T3, thrombin. The assay is described as above. The conditions noted are these: for ΔA: absorbance 405 nm over 100 seconds. The protocol: as §2, §3
For a further assay, the target named is T4, A2M (Homo sapiens, UniProt P01023).
T4 construct: purchased Sigma
T4 sequence (P01023 24-1474): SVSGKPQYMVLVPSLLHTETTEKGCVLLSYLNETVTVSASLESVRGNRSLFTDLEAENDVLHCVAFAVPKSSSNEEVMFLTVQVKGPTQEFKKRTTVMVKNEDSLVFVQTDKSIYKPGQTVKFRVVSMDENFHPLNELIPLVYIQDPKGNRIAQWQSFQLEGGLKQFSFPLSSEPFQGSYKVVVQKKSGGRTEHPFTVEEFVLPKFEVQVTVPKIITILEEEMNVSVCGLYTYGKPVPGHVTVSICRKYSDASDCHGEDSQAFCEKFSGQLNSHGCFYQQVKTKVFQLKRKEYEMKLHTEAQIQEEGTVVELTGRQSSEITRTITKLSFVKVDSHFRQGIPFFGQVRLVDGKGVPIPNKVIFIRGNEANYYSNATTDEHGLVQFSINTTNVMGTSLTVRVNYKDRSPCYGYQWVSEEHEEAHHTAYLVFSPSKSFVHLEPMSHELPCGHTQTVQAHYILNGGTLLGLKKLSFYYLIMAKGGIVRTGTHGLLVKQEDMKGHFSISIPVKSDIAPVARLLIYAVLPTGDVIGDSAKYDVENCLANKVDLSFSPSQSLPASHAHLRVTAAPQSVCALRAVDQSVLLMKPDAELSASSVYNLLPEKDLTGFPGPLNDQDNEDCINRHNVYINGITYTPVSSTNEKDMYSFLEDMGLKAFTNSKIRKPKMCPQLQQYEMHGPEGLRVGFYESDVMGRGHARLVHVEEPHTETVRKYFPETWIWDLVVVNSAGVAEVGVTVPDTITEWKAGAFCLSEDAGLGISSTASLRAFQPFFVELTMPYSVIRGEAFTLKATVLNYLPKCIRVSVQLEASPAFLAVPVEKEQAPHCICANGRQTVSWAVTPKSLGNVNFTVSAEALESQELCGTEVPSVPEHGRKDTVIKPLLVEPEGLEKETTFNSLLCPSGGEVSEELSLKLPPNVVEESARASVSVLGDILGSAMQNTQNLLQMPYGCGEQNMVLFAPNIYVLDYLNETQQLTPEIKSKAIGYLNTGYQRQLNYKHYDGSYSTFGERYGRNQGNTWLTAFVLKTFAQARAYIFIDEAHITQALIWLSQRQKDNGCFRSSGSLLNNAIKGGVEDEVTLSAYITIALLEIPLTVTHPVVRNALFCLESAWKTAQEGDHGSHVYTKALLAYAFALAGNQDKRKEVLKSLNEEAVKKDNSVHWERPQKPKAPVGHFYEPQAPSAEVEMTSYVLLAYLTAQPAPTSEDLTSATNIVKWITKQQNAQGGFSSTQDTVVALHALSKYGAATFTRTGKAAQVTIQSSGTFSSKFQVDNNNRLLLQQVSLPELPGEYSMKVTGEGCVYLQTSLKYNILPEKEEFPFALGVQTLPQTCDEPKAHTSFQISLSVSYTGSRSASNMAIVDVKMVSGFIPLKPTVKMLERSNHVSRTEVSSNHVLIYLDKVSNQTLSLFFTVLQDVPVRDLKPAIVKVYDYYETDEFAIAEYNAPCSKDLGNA
The description is as above. The note with it: absorbance 405 nm over 100 seconds. The protocol: as §2, §3

For H-D-Phe-Pip-Arg-pNA [S2238], the “Absorbance at 405 nm of supernatant after 10 minutes incubation and 1 minute centrifugation” value on human alpha thrombin is 1.143. Besides, the “Which thrombin species accounts for the detected activity (comparison of samples)” value in assay [1] (comparison of free thrombin+thrombin-A2M samples with thrombin-A2M only samples, 60 sec or 300 sec) is given as “the vast majority of soluble S2238 activity is due to thrombin-A2M”. Moreover, the “Thrombin activity detected (absorbance at 405 nm), in words” value is recorded as “significant activity” in assay [1] (60 seconds after plasma activation), “significant thrombin substrate activity” in assay [1] (300 seconds after plasma activation) and “significant thrombin activity” on thrombin-A2M [2]. Moreover, the “Thrombin Activity (Δ absorbance/minute)” value on thrombin-A2M [3] is 0.48 Δ absorbance/minute; at thrombin [4] it was 0.57 Δ absorbance/minute. For the same substance, the ΔA on thrombin-A2M [5] (Thrombin-A2M added) turned out to be 0.8; on thrombin-A2M [5] (thrombin-A2M + antithrombin + heparin added), 0.8; on thrombin [6] (Thrombin added) it was 0.95; on thrombin [6] (thrombin + antithrombin + heparin added) it was 0; at A2M (A2M + antithrombin + heparin added), 0; at A2M (A2M added), 0. Also, the “Reaction with thrombin-A2M (in words)” value at thrombin-A2M [5] (summary of Table 1) was “reacts readily”. In addition, the “Reaction with free thrombin (in words)” value on thrombin [6] (summary of Table 1) is listed as “reacts readily”.
